The results in this text go back to ChEMBL document CHEMBL1124594, “4-(Phosphonoalkyl)- and 4-(phosphonoalkenyl)-2-piperidinecarboxylic acids: synthesis, activity at N-methyl-D-aspartic acid receptors, and anticonvulsant activity” (J Med Chem, 1989).

Some results are limits rather than exact numbers.

Test [1] deals with Mus musculus. Nature of the test: Effective dose of the intraperitoneally administered compound causing loss of traction reflex, was tested in N-methyl-D-aspartic acid convulsions model. It counts as functional. The note with it: ip.
In test [2] the test system is Mus musculus. Nature of the test: Effective dose of the intraperitoneally administered compound protecting mice against tonic seizures, was tested in N-methyl-D-aspartic acid convulsions model. In kind it is functional. Particulars: ip.
In test [3] the target is Glutamate NMDA receptor. Nature of the test: Inhibition of [3H]-CGS- 19755 binding to N-methyl-D-aspartate glutamate receptor in rat crude synaptic membranes. In kind it is cell membranes, Membrane.
Test [4] addresses Glutamate NMDA receptor. Nature of the test: Inhibition of [3H]-CGS- 19755 binding to N-methyl-D-aspartic acid receptors in rat crude synaptic membranes. It counts as cell membranes, Membrane.

Usually ED50 stands for the dose at which the effect has come halfway, by size or by number of responders. Read a low ED50 as an effect at a small dose. For orientation: IC50 means the point on the concentration scale where inhibition reaches its midpoint. Higher therefore signals weaker potency in that assay. Turning to `C[C@H]1[C@@H](CP(=O)(O)O)CCN[C@H]1C(=O)O`, the ED50 was 33 mg/kg in the test with Mus musculus [1] and 26 mg/kg in the test with Mus musculus [2]. The molecule also registered an IC50 on Glutamate NMDA receptor [3] of 1.3 µM.
Regarding `O=C(O)[C@H]1C[C@H](/C=C/CP(=O)(O)O)CCN1`, the ED50 in the test with Mus musculus [1] was 14 mg/kg; in the test with Mus musculus [2], 8.3 mg/kg. Further, the IC50 on Glutamate NMDA receptor [3] was found to be 0.039 µM.
At Glutamate NMDA receptor [3], `O=C(O)[C@H]1C[C@H](CP(=O)(O)O)CCN1` yielded an IC50 of 0.452 µM. This counts as sub-micromolar.
Take `O=C(O)[C@H]1C[C@@H](/C=C/CP(=O)(O)O)CCN1`: the figures for the ED50 in the test on Mus musculus [1] and in the test with Mus musculus [2] were 1.9 mg/kg and 1.2 mg/kg, respectively. In addition, on Glutamate NMDA receptor [3], the IC50 is 0.014 µM.
As for `CC([C@H]1CCN[C@@H](C(=O)O)C1)P(=O)(O)O` (stereo partly drawn), the figures for the ED50 with Mus musculus [1] and in the test with Mus musculus [2] were 64 mg/kg and 21 mg/kg, respectively. On Glutamate NMDA receptor [3], this molecule gave an IC50 of 0.8 µM.
For the molecule `N[C@@H](CCCP(=O)(O)O)C(=O)O`, at Glutamate NMDA receptor [4], the IC50 was 0.35 µM. For the same molecule, the ED50 with Mus musculus [1] and in the test on Mus musculus [2] was > 154 mg/kg each time.
Take `O=C(O)[C@H]1C[C@@H](C/C=C/P(=O)(O)O)CCN1`: the 50% effective dose (ED50) with Mus musculus [1] was 14 mg/kg; with Mus musculus [2], 2.5 mg/kg. In addition, the IC50 on Glutamate NMDA receptor [3] turned out to be 0.072 µM.
In the case of `CC(C)([C@H]1CCN[C@@H](C(=O)O)C1)P(=O)(O)O`, the IC50 on Glutamate NMDA receptor [3] stood at 1.3 µM.
As for `C[C@@H]1C[C@H](CP(=O)(O)O)C[C@H](C(=O)O)N1`, the ED50 in the test on Mus musculus [1] was determined as 84 mg/kg; in the test on Mus musculus [2] it was 34 mg/kg. Further, on Glutamate NMDA receptor [3], the IC50 came out at 1.6 µM.
With `CN1CC[C@H](CP(=O)(O)O)C[C@@H]1C(=O)O`, the IC50 on Glutamate NMDA receptor [3] was 28 µM.
Turning to `O=C(O)[C@H]1C[C@H](C/C=C/P(=O)(O)O)CCN1`, the ED50 with Mus musculus [1] was found to be 20 mg/kg; in the test with Mus musculus [2] it was 10 mg/kg. Further, the IC50 on Glutamate NMDA receptor [3] was 0.08 µM.
Take `O=C(O)C1CN(CCCP(=O)(O)O)CCN1` (stereo not drawn): the IC50 at Glutamate NMDA receptor [4] was 0.22 µM. The figures for the ED50 with Mus musculus [1] and in the test with Mus musculus [2] were 6.1 mg/kg and 1.9 mg/kg, respectively.
As for `C[C@H]1CN[C@@H](C(=O)O)C[C@H]1CP(=O)(O)O`, the values for the ED50 in the test on Mus musculus [1] and in the test with Mus musculus [2] were 29 mg/kg and 7.1 mg/kg, respectively. Further, the IC50 at Glutamate NMDA receptor [3] worked out at 0.078 µM.
Turning to `O=C(O)[C@H]1C[C@H](CCCP(=O)(O)O)CCN1`, at Glutamate NMDA receptor [3], the IC50 stood at 0.105 µM. In other words, the sub-micromolar range.
Take `O=C(O)[C@@H]1C[C@H](CP(=O)(O)O)CCN1` [SELFOTEL]: the IC50 at Glutamate NMDA receptor [4] amounted to 0.032 µM. For the same molecule, the ED50 is 5.4 mg/kg in the test with Mus musculus [1] and 2.1 mg/kg with Mus musculus [2].
On to `O=C(O)[C@H]1C[C@@H](CCCP(=O)(O)O)CCN1`, for which the IC50 at Glutamate NMDA receptor [4] turned out to be 0.098 µM. Also, the ED50 with Mus musculus [1] was 5.4 mg/kg; with Mus musculus [2] it was 2 mg/kg.
The molecule `N[C@H](CCCCCP(=O)(O)O)C(=O)O` returned an IC50 on Glutamate NMDA receptor [4] of 0.912 µM. In addition, the ED50 with Mus musculus [1] is 188 mg/kg; with Mus musculus [2] it was 34 mg/kg.
